Legend:
PI3Kδ = PI3Kδ (Homo sapiens, UniProt O00329); details: cited from earlier work
mTOR = mTOR (Homo sapiens, UniProt P42345); details: cited from earlier work
PI3Kβ = PI3Kβ (Homo sapiens, UniProt P42338); details: cited from earlier work
PI3Kγ = PI3Kγ (Homo sapiens, UniProt P48736); details: cited from earlier work
PI3Kα = PI3Kα (Homo sapiens, UniProt P42336); details: cited from earlier work
class I PI3Ks = details: cited from earlier work
mTORC1/2 = mTORC1/2 (Homo sapiens, UniProt P42345); details: in words; cited from earlier work
Rec-ven-R cells = assay: CellTiter-Glo Luminescent Cell viability Assay, abemaciclib single agent; type: cell-based; details: 72h, acquired venetoclax resistance
Procedure: (§1) IC50 values were calculated using GraphPad Prism 8 for each cell line. Student's t-test was performed to compare the difference between vehicle and treated groups. Two-way analysis of variance (ANOVA) was conducted to analyze the tumor growth in vivo experiments. P values less than 0.05 were considered statistically significant.

[1] = system: MCL cell lines (Mino, Rec-1, Maver-1, Z138, JeKo-1); assay: as above; type: cell-based; details: 72h; range over venetoclax sensitive (Mino, Rec-1, Maver-1, Z138) and primary resistant (JeKo-1) MCL cells
Procedure: as §1

Mino-ven-R cells = assay: as above; type: cell-based; details: 72h, acquired venetoclax resistance
Procedure: as §1

Sequence of PI3Kγ (P48736 whole entry): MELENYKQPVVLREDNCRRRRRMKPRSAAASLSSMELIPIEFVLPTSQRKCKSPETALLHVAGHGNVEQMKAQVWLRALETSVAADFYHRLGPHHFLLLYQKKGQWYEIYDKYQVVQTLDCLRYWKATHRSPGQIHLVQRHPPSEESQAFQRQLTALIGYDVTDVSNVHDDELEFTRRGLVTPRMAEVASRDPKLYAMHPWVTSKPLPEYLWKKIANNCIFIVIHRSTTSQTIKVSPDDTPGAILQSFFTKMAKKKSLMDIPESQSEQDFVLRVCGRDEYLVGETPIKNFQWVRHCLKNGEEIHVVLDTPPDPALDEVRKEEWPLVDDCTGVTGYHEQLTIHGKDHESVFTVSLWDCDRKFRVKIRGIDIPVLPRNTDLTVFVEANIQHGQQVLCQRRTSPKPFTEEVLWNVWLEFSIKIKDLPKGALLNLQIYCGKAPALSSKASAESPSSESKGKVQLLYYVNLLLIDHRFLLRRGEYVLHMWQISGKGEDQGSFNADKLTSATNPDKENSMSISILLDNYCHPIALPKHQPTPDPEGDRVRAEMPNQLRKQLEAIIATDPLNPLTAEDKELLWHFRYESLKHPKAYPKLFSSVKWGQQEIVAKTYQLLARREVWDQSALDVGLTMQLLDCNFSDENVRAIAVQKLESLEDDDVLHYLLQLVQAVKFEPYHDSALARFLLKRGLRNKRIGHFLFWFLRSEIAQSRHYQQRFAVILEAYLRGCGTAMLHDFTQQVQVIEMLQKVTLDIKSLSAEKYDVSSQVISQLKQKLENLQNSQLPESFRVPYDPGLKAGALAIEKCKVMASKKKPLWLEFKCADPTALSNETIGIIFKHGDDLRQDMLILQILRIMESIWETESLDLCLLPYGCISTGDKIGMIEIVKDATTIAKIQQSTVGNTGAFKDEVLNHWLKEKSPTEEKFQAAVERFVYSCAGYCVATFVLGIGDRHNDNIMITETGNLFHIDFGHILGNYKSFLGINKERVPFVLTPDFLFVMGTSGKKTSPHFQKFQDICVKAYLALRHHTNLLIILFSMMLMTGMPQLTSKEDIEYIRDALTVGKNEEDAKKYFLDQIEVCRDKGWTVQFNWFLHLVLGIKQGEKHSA
Sequence of PI3Kβ (P42338 whole entry): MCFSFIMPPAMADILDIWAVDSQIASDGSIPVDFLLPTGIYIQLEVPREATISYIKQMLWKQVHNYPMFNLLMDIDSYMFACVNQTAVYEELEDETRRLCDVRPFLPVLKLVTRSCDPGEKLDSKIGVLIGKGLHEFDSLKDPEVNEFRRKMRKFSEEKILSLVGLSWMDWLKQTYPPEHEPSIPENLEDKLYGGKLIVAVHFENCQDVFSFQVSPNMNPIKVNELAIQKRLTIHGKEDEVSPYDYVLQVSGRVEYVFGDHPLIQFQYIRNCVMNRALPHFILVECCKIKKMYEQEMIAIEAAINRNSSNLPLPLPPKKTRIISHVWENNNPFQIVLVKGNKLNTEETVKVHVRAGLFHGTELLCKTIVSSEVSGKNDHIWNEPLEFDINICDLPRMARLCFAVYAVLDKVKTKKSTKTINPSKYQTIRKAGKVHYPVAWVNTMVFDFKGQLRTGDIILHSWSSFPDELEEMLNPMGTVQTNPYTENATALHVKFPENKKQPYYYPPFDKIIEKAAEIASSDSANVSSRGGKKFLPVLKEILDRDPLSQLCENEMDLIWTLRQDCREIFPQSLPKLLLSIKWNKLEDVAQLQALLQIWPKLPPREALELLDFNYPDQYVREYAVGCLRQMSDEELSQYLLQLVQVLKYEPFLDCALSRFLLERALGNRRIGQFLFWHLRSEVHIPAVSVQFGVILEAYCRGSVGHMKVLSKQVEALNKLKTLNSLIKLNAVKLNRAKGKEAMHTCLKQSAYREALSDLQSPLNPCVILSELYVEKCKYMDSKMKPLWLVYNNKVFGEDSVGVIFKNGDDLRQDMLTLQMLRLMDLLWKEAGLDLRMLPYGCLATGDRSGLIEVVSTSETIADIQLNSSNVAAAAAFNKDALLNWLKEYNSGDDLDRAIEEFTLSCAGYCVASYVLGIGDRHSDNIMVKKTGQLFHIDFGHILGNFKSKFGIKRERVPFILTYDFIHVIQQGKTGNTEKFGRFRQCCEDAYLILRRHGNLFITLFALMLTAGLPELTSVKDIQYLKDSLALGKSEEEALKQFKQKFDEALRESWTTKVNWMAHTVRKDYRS
Sequence of PI3Kβ (P27986 whole entry partner): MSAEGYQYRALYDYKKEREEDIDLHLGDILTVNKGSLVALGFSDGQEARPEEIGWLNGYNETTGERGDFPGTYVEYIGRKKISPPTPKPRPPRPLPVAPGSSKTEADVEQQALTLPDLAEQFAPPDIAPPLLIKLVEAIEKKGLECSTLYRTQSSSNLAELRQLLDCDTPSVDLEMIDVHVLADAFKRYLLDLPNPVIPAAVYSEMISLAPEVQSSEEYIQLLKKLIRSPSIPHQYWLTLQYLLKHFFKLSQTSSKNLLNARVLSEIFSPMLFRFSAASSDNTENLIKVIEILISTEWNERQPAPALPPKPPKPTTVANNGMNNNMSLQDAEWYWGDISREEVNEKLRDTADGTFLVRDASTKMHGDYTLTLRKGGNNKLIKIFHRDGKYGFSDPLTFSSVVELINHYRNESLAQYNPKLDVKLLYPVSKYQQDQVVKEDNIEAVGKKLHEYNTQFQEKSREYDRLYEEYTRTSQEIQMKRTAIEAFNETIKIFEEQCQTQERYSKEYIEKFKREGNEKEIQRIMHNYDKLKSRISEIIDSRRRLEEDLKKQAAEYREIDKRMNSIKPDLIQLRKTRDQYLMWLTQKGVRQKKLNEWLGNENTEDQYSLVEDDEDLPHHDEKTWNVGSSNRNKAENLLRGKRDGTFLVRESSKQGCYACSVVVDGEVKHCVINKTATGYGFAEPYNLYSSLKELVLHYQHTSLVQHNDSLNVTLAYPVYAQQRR
Sequence of PI3Kδ (O00329 whole entry): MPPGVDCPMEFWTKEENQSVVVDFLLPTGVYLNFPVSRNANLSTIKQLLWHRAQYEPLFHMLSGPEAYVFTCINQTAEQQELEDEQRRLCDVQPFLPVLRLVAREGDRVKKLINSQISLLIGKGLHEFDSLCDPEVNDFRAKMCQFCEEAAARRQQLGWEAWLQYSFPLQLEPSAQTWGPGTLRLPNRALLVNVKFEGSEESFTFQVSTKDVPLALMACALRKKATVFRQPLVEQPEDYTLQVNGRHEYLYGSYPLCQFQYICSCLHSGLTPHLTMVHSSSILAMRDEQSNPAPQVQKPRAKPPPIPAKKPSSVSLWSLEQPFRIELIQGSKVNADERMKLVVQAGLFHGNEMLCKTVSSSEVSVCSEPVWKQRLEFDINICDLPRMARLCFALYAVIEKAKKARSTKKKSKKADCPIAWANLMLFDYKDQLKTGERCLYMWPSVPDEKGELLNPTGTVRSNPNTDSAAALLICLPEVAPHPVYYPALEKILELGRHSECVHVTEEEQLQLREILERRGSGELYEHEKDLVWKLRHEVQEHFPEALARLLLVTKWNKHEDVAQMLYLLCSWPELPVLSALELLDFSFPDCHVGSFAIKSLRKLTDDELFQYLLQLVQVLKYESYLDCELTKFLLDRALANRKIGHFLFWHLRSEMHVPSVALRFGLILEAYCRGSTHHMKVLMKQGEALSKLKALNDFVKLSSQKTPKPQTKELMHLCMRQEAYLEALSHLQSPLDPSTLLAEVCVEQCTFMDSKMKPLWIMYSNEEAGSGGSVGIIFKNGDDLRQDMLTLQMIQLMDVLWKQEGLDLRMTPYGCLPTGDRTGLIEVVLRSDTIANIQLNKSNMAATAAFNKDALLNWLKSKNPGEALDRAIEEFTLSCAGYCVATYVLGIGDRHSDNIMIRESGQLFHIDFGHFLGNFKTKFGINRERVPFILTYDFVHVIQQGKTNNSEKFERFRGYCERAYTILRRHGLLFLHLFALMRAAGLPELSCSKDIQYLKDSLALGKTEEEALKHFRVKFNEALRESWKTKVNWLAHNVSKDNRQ
Sequence of PI3Kδ (P27986 whole entry partner): as the sequence (P27986 whole entry partner) above
Sequence of PI3Kα (P42336 whole entry): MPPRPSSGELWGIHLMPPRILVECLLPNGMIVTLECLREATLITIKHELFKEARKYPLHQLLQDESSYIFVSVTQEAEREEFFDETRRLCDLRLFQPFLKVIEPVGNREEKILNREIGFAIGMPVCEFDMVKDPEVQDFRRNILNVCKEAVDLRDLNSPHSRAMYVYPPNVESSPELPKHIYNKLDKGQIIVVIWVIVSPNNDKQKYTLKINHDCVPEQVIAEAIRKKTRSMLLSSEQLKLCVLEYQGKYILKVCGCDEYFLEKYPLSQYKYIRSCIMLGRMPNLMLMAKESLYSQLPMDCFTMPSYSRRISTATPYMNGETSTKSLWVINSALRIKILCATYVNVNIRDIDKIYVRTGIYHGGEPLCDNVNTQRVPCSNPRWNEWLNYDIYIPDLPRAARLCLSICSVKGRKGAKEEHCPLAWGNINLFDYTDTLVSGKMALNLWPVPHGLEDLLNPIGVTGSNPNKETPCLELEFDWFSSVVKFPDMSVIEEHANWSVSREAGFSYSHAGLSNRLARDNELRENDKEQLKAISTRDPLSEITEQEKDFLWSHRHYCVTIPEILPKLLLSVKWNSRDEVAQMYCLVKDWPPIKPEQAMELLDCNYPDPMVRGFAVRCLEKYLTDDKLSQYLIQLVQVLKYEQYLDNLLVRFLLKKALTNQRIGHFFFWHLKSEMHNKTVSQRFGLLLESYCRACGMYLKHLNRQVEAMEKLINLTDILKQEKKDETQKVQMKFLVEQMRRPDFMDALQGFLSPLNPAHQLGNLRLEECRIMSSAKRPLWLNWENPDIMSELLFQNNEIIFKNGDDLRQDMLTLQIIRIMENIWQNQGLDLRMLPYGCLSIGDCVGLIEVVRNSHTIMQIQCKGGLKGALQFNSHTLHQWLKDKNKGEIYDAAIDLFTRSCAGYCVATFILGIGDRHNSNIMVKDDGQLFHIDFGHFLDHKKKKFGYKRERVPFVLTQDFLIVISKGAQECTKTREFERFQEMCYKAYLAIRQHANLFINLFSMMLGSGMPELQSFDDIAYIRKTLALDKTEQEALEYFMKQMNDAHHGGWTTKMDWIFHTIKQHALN
Sequence of PI3Kα (P27986 whole entry partner): as the sequence (P27986 whole entry partner) above

SMILES	IC50 against PI3Kδ (order of magnitude in words) (PI3Kδ)	IC50 against mTOR (order of magnitude in words) (mTOR)	IC50 against PI3Kγ (order of magnitude in words) (PI3Kγ)	IC50 against PI3Kα (order of magnitude in words) (PI3Kα)	also measured
C[C@@H](Nc1cc(F)cc(F)c1)c1cc(C(=O)N(C)C)cc2c(=O)cc(N3CCOCC3)oc12 [AZD8186, 8-[(1R)-1-(3,5-difluoroanilino)ethyl]-N,N-dimethyl-2-morpholin-4-yl-4-oxochromene-6-carboxamide]	nanomolar				
C[C@H](Nc1ncnc2nc[nH]c12)c1nc2ccc(F)cc2c(=O)n1-c1ccccc1 [Acalisib, 6-fluoro-3-phenyl-2-[(1S)-1-(7H-purin-6-ylamino)ethyl]quinazolin-4-one]	nanomolar				
Cc1c(CN2CCN(C(=O)[C@H](C)O)CC2)sc2c(N3CCOCC3)nc(-c3cnc(N)nc3)nc12 [Apitolisib, (2S)-1-[4-[[2-(2-aminopyrimidin-5-yl)-7-methyl-4-morpholin-4-ylthieno[3,2-d]pyrimidin-6-yl]methyl]piperazin-1-yl]-2-hydroxypropan-1-one]		nanomolar			
COc1ccc(-c2ccc3ncc4c(c3c2)n(-c2ccc(N3CCNCC3)c(C(F)(F)F)c2)c(=O)n4C)cn1 [BGT-226, 8-(6-methoxypyridin-3-yl)-3-methyl-1-[4-piperazin-1-yl-3-(trifluoromethyl)phenyl]imidazo[4,5-c]quinolin-2-one]	nanomolar	nanomolar	nanomolar	nanomolar	IC50 against PI3Kβ (order of magnitude in words) (PI3Kβ): nanomolar
CS(=O)(=O)N1CCc2c(-c3cnc(N)nc3)nc(N3CCOCC3)nc21 [CH5132799, 5-(7-(methylsulfonyl)-2-morpholino-6,7-dihydro-5H-pyrrolo[2,3-d]pyrimidin-4-yl)pyrimidin-2-amine]					IC50 against class I PI3Ks (order of magnitude in words) (class I PI3Ks): nanomolar
COc1cccc2cc(-c3nc([C@H]4CC[C@H](C(=O)O)CC4)n4ncnc(N)c34)[nH]c12 [OSI-027, 4-[4-amino-5-(7-methoxy-1H-indol-2-yl)imidazo[5,1-f][1,2,4]triazin-7-yl]cyclohexane-1-carboxylic acid]		nanomolar			
COc1ncc(-c2ccc3nccc(-c4ccnnc4)c3c2)cc1NS(=O)(=O)c1ccc(F)cc1F [Omipalisib, 2,4-difluoro-N-[2-methoxy-5-(4-pyridazin-4-ylquinolin-6-yl)pyridin-3-yl]benzenesulfonamide]			nanomolar		
O=C(Nc1ccncc1)Nc1ccc(-c2nc(N3CCOCC3)nc(N3C4CCC3COC4)n2)cc1 [PKI-179, 1-[4-[4-morpholin-4-yl-6-(3-oxa-8-azabicyclo[3.2.1]octan-8-yl)-1,3,5-triazin-2-yl]phenyl]-3-pyridin-4-ylurea]	nanomolar	nanomolar	nanomolar	nanomolar	IC50 against PI3Kβ (order of magnitude in words) (PI3Kβ): nanomolar
CCOc1c([C@H](C)n2nc(C)c3c(N)ncnc32)cc(Cl)c(F)c1[C@@H]1CNC(=O)C1 [Parsaclisib, (4R)-4-[3-[(1S)-1-(4-amino-3-methylpyrazolo[3,4-d]pyrimidin-1-yl)ethyl]-5-chloro-2-ethoxy-6-fluorophenyl]pyrrolidin-2-one]	nanomolar				
COc1ccc(Cl)c(Nc2nc3ccccc3nc2NS(=O)(=O)c2cccc(NC(=O)C(C)(C)N)c2)c1 [Pilaralisib, 2-amino-N-[3-[[3-(2-chloro-5-methoxyanilino)quinoxalin-2-yl]sulfamoyl]phenyl]-2-methylpropanamide]	nanomolar		nanomolar	nanomolar	IC50 against PI3Kβ (order of magnitude in words) (PI3Kβ): nanomolar
CO[C@@H](C)Cn1c(=O)n(C)c2cnc3ccc(-c4cncc(C(C)(C)O)c4)cc3c21 [Samotolisib, 8-[5-(2-hydroxypropan-2-yl)pyridin-3-yl]-1-[(2S)-2-methoxypropyl]-3-methylimidazo[4,5-c]quinolin-2-one]					concentrations at which mTORC1/2 is inhibited (mTORC1/2): low nanomolar concentrations
Nc1nc2cc(-c3ccc4ncc(C(=O)N5CCOCC5)n4c3)ccc2o1 [Serabelisib, [6-(2-amino-1,3-benzoxazol-5-yl)imidazo[1,2-a]pyridin-3-yl]-morpholin-4-ylmethanone]				nanomolar	
C=CCN(/C=C1/C(=O)O[C@H](COC)[C@@]2(C)C1=C(O)C(=O)C1=C2[C@H](OC(C)=O)C[C@]2(C)C(=O)CC[C@@H]12)CC=C [Sonolisib, [(3αR,6E,9S,9αR,10R,11αS)-6-[bis(prop-2-enyl)aminomethylidene]-5-hydroxy-9-(methoxymethyl)-9α,11α-dimethyl-1,4,7-trioxo-2,3,3a,9,10,11-hexahydroindeno[4,5-h]isochromen-10-yl]acetate]	nanomolar		nanomolar	nanomolar	
Cc1nc(-c2cn3c(n2)-c2ccc(-c4cnn(C(C)(C)C(N)=O)c4)cc2OCC3)n(C(C)C)n1 [Taselisib, 2-methyl-2-[4-[2-(5-methyl-2-propan-2-yl-1,2,4-triazol-3-yl)-5,6-dihydroimidazo[1,2-d][1,4]benzoxazepin-9-yl]pyrazol-1-yl]propanamide]			nanomolar		IC50 against PI3Kβ (order of magnitude in words) (PI3Kβ): nanomolar
CO[C@H]1C[C@@H]2CC[C@@H](C)[C@@](O)(O2)C(=O)C(=O)N2CCCC[C@H]2C(=O)O[C@H]([C@H](C)C[C@@H]2CC[C@@H](OC(=O)C(C)(CO)CO)[C@H](OC)C2)CC(=O)[C@H](C)/C=C(\C)[C@@H](O)[C@@H](OC)C(=O)[C@H](C)C[C@H](C)/C=C/C=C/C=C/1C [Temsirolimus, [(1R,2R,4S)-4-[(2R)-2-[(1R,9S, 12S, 15R, 16E,18R, 19R,21R,23S,24E,26E,28E,30S,32S,35R)-1,18-dihydroxy-19,30-dimethoxy-15,17,21,23,29,35-hexamethyl-2,3,10, 14,20-pentaoxo-11,36-dioxa-4-azatricyclo[30.3.1.04,9]hexatriaconta-16,24,26,28-tetraen-12-yl]propyl]-2-methoxycyclohexyl]3-hydroxy-2-(hydroxymethyl)-2-methylpropanoate]		micromolar			
CC[C@H](Nc1ncnc2[nH]cnc12)c1oc2ccccc2c(=O)c1-c1cccc(F)c1 [Tenalisib, 3-(3-fluorophenyl)-2-[(1S)-1-(7H-purin-6-ylamino)propyl]chromen-4-one]	nanomolar		nanomolar		
CCn1c(=O)c(-c2ccn[nH]2)cc2c(C)nc(N)nc21 [Voxtalisib, 2-amino-8-ethyl-4-methyl-6-(1H-pyrazol-5-yl)pyrido[2,3-d]pyrimidin-7-one]	nanomolar	nanomolar	nanomolar	nanomolar	IC50 against PI3Kβ (order of magnitude in words) (PI3Kβ): nanomolar
CN1CCC(c2ccccc2CC(C)(C)Nc2nc(N3CCOCC3)nc(-n3c(C(F)F)nc4ccccc43)n2)CC1 [Zandelisib, 4-[2-(difluoromethyl)benzimidazol-1-yl]-N-[2-methyl-1-[2-(1-methylpiperidin-4-yl)phenyl]propan-2-yl]-6-morpholin-4-yl-1,3,5-triazin-2-amine]	nanomolar				
CCN1CCN(Cc2ccc(Nc3ncc(F)c(-c4cc(F)c5nc(C)n(C(C)C)c5c4)n3)nc2)CC1 [abemaciclib]					IC50 (Rec-ven-R cells): 4.4 µM; IC50 [1]: 0.07 to 0.952 µM; IC50 (Mino-ven-R cells): 6 µM

From patent US20250041300A1, “PHARMACEUTICAL COMBINATION COMPRISING ABEMACICLIB AND A PI3K AND/OR A MTOR INHIBITOR FOR THE TREATMENT OF MANTLE CELL LYMPHOMA” (Board of Regents, The University of Texas System, priority 2021, published 2025)
